Columns and labels:
[1] = test system: rat cytosolic GST isoenzymes; test: Isoenzyme composition of sorbent eluates by SDS/PAGE and reverse-phase HPLC; format: binding
Protocol: Fractions eluted from the sorbents listed in Table 3 were analyzed by SDS/PAGE followed by silver staining. S-L-GSH and HxGSH sorbents bound proteins which corresponded to the previously observed electrophoretic band pattern of rat liver GST subunits. […] As the π-class GST 7-7 is found at low levels in rat liver cytosol, other rat tissues known to express higher levels of this isoenzyme also were tested.
Independent confirmation of this conclusion, at higher resolution, was provided by reverse-phase HPLC analyses of the GST isoenzymes in the eluates from different sorbents. […] Subunits 3, 4 and 6 are µ-class isoenzymes, subunits 1a, 1b, 2 and 8 are α-class isoenzymes, and subunit 7 is the π-class isoenzyme.

[2] = test system: rat liver cytosolic GST isoenzymes; test: Affinity chromatography of rat liver cytosol on GSH and GSH analog sorbents; recovery of protein and CDNB-conjugating activity in elution fractions; format: binding
Protocol: 0.66 g epoxy Sepharose™ 6B (Pharmacia) was swollen with 10 mL water for 15 min, then rinsed twice with 10 mL water in a 15 mL sintered glass funnel. A solution of 100-500 mg of the crude tripeptide in 5 mL ethanol and 10 mL water was adjusted to pH 11-12 with 6 N NaOH in a 20 mL scintillation vial with a polycone cap. The rinsed resin was added, and gently agitated overnight in a 37° water bath. The pH was checked the next day and brought back to pH 11-12 with 6 N NaOH if needed. After another day of agitation, the resin was filtered (the peptide-containing liquid was acidified with conc HCl, evaporated and saved) and rinsed three times with 10 mL water. The unfunctionalized epoxy groups were capped by soaking the resin in 10 mL of water which contained about 0.1 mL ethanolamine for 1 hr. The resin was then rinsed three times with 10 mL water, and a sample was removed for analysis. The remainder was rinsed with 10 mL of 0.1 M NaOAc, 0.5 M NaCl pH 4.0 buffer, followed by 10 mL of 0.1 M tris chloride, 0.5 M NaCl pH 8.0 buffer. The resin was stored at 4°C in this pH 8 buffer.
The recoveries of protein and GST (CDNB-conjugating) activity in the elution fractions after affinity purification of rat liver cytosolic GST isoenzymes on various compounds of the invention are shown in Table 3.

[3] = test system: glyoxalase I; test: SDS/PAGE detection of glyoxalase I-like protein in sorbent eluates; format: binding, rat; details: EDTA in buffers
Excerpt: A protein with a molecular migration similar to that of another GSH-dependent enzyme, glyoxalase I, was also present in the eluates from γE-C(Bz)-A and γE-C(Bz)-βA, but was not detected in eluates from the other sorbents. […] Glyoxalase I is known to be a metal-dependent enzyme, and the presence of EDTA in the buffers may have interfered with binding activity.

N[C@@H](CCC(=O)N[C@@H](CSCc1ccccc1)C(=O)NCCC(=O)O)C(=O)O [γE-C(Bz)-βA, γ-glutamyl S-benzyl cysteinyl β-alanine] was tested, and the “SDS/PAGE band pattern of eluate” value ([1]; rat liver cytosol, silver staining) was “highly enriched band for presumptive µ-class isoenzymes”, the isoenzymes bound ([1]; reverse-phase HPLC of eluates) was “selectively bound the µ-class isoenzymes 3 and 4” and the Protein recovery ([2]; Table 4, rat cytosolic GST isoenzymes) was 1.0%. The “protein recovery seen with HxGSH” value ([2]; relative to HxGSH sorbent) was 33%, the CDNB-conjugating activities ([2]; relative to HxGSH sorbent, after correcting for the inhibitory properties of the eluting ligand) was 52% and the “protein with a molecular migration similar to glyoxalase I in eluate” value [3] was “present”.

Reference: patent EP0645397B1, “Glutathione analogs and paralog panels comprising glutathione mimics” (TERRAPIN TECHNOLOGIES, INC., priority 1993, dated 1998)
